This passage reports IC50 results from patent US10189865B1, “Gold(I) complexes, pharmaceutical compositions thereof, and methods of treating proliferative disorders” (King Fahd University of Petroleum and Minerals, priority 2018, dated 2019).

Holding throughout (assay type): cell-based
Assay [1] deals with HCT15 (human colon cancer) cell line. Briefly: MTT in vitro cytotoxicity assay, HCT15. The conditions noted are these: 24 h incubation with complex, three independent experiments, read-out: IC50 against HCT15. The procedure:
(§1) The cells were seeded at 3×10^3 cells/well in 100 μL of Dulbecco's Modified Eagle's Medium (DMEM) containing 10% fetal bovine serum (FBS) in a 96-well tissue culture plate and incubated for 72 h at 37° C., 5% CO2 and 90% relative humidity in a CO2 incubator. After incubation, 100 μL of 100, 50, 25 and 12.5 μM solutions of cisplatin and gold(I) complexes prepared in Dulbecco's Modified Eagle's Medium (DMEM) was each added to the cells and the cultures were incubated for 24 h. The medium in the wells was casted off, and 100 μL of DMEM containing MTT (0.5 mg/mL) was added to the wells, which were subsequently incubated in the CO2 incubator at 37° C. in the dark for 4 h. After incubation, purple-colored formazan produced by the cells appeared as dark crystals in the bottom of the wells. The culture medium was carefully removed from each well to prevent disruption of the monolayer, and 100 μL of dimethyl sulfoxide (DMSO) was added in each well. The solution in the wells was thoroughly mixed to dissolve the formazan crystals which produced a purple solution. The absorbance of the 96 well-plates was measured at 570 nm with Labsystems Multiskan EX ELISA reader against a reagent blank. The experimental results were calculated as micro-molar concentration for 50% cell growth inhibition (IC50) of each drug. The MTT assay was carried out in three independent experiments, each in triplicate. […]

For assay [2], the system named is A549 (human lung carcinoma) cell line. Briefly: MTT in vitro cytotoxicity assay, A549. The conditions noted are these: 24 h incubation with complex, three independent experiments, read-out: IC50 against A549. The procedure:
as §1

Assay [3] relates to MCF7 (human breast adenocarcinoma) cell line. The assay can be described thus: MTT in vitro cytotoxicity assay, MCF7. Conditions: 24 h incubation with complex, three independent experiments, read-out: IC50 against MCF7. The procedure: as §1

Regarding `N.N.[Cl][Pt][Cl]` [Cisplatin, cisplatin, reference compound], the IC50 (as a rule, the point on the concentration scale where inhibition reaches its midpoint) in assay [1] was determined as 33 ± 2 µM.
As for [Au(IPr)(ImSe]PF6 [Complex (II)], the results for the IC50 in assay [2], in assay [1] and in assay [3] were 47 ± 1 µM, 33 ± 1 µM and 43 ± 2 µM, respectively.
